Data reported in ChEMBL document CHEMBL2095176, “GSK Tuberculosis Screening Data”.
In brackets after ≈: the same amount, converted by molar mass.

System: Mycobacterium tuberculosis variant bovis BCG
Assay: microbe, parasite or virus in culture
Type: functional

Structure (SMILES)	MIC90
Cn1c(Sc2ccnc(N3CCN(c4ccncc4)CC3)n2)nnc1C(N)=O	6.9 µM (≈ 2.74 µg/mL)
COc1ccc(-c2nnc(NC(=O)c3ccc(Br)s3)o2)cc1	7.6 µM (≈ 2.89 µg/mL)
CCOc1ccc(C(=O)Nc2nc(-c3ccccn3)cs2)cc1OCC	5.6 µM (≈ 2.07 µg/mL)
CCSc1ccc(C(=O)Nc2nc(-c3ccccn3)cs2)cc1	2.3 µM (≈ 0.785 µg/mL)
Cc1cccc(-c2nc(Nc3ccncn3)c3sccc3n2)n1	0.3 µM (≈ 0.0961 µg/mL)
Cc1sc2nc(C3CC3)n(C3CCN(CC(=O)N4CCCC4)CC3)c(=O)c2c1C	5 µM (≈ 2.07 µg/mL)
Nc1nc(SCc2cccc(F)c2F)nc2[nH]c(=O)cnc12	4.4 µM (≈ 1.41 µg/mL)
COc1ccc2nc(C)cc(OCC(=O)NCc3ccccc3)c2c1	3.6 µM (≈ 1.21 µg/mL)
Fc1cccc(-c2nc(NCC3COc4ccccc4O3)no2)c1F (configuration not stated)	9.2 µM (≈ 3.18 µg/mL)
CCCCOc1ccc(NC(=O)C2CCCCC2)cc1	8.1 µM (≈ 2.23 µg/mL)
Cc1cc(Oc2ccc(-n3ccnc3)cc2)nc(N2CCN[C@@H](Cc3ccccc3)C2)n1	6.1 µM (≈ 2.6 µg/mL)
O=C(CNc1ccccc1Nc1ccccc1)N1CCCC1	8.2 µM (≈ 2.42 µg/mL)
c1ccc(-c2ccc(CN3CCC4(CC3)OCCc3sccc34)s2)cc1	4.7 µM (≈ 1.79 µg/mL)
CC1=C(C(=O)Nc2ccc3[nH]ncc3c2)C(c2cc(C#Cc3ccccc3)cs2)NC(=O)N1 (configuration not stated)	2 µM (≈ 0.907 µg/mL)
Cc1ccc2c(NC(=O)Nc3ccc(N(C)C)cc3)cc(C)nc2c1	5.8 µM (≈ 1.94 µg/mL)
O=C(Nc1nc(-c2ccccn2)cs1)c1cc2c(F)cccc2s1	2.1 µM (≈ 0.746 µg/mL)
Cc1ccc(Nc2cc(C)nn2-c2nc(C)cc(O)n2)cc1	0.5 µM (≈ 0.148 µg/mL)
O=C(c1ccc(-c2cccc(OCCN(CCO)C3CCCCC3)c2)cc1)N1CCCC1	6.5 µM (≈ 2.84 µg/mL)
CCc1nn2c(C3CCCNC3)ccnc2c1-c1ccc(OC)cc1 (configuration not stated)	1.5 µM (≈ 0.505 µg/mL)
O=C(/C=C/c1ccc(OC(F)(F)F)cc1)NC1CCN(c2ncccc2C(F)(F)F)CC1	3.8 µM (≈ 1.75 µg/mL)
CSc1ccc(CC(=O)Nc2nc(-c3ccccn3)cs2)cc1	9.1 µM (≈ 3.11 µg/mL)
O=C(NCCNCc1cc(-c2cncc3ccccc23)cs1)c1ccc(Cl)cc1	8.4 µM (≈ 3.54 µg/mL)
Cc1ccc(NC(=O)c2cccc(Cl)c2F)cc1-c1ccc(C(N)=O)cc1	9.5 µM (≈ 3.64 µg/mL)

Structure (SMILES)	MIC90
CNC(=O)c1cc(Nc2ncc(F)c(N(C)c3ccc4c(C)[nH]nc4c3)n2)ccc1OCC1CCNCC1	8.8 µM (≈ 4.56 µg/mL)
O=C(NC12CC3CC(CC(C3)C1)C2)c1cc2ccccc2[nH]1	2.5 µM (≈ 0.736 µg/mL)
C=CCNCCS(=O)(=O)c1cccc(Nc2ccc(-c3ccc(OC)nc3)cn2)c1	1.3 µM (≈ 0.552 µg/mL)
Cc1ccc2nc(NC(=O)c3cc(C)nc4c3c(C)nn4C(C)C)sc2c1	7.6 µM (≈ 2.88 µg/mL)
O=C(N[C@@H](Cc1ccccc1)C(=O)Nc1ccccc1N1CCOCC1)c1cccs1	3.2 µM (≈ 1.39 µg/mL)
CCCCNC(=O)N1CCN(Cc2cccc3ccccc23)CC1	8.8 µM (≈ 2.86 µg/mL)
O=C(Nc1nc(-c2ccccn2)cs1)c1cccc(-n2cnnn2)c1	8.5 µM (≈ 2.97 µg/mL)
CCN(Cc1nc2ccccc2c(=O)[nH]1)C1CCCc2cccnc21 (configuration not stated)	4.4 µM (≈ 1.47 µg/mL)
Cc1ccc(C)c(-c2nnc(NC(=O)c3cccc(C(F)(F)F)c3)o2)c1	4.1 µM (≈ 1.48 µg/mL)
Cc1cc(C(=O)Nc2nc3c(C)cccc3s2)c2c(C)nn(C(C)C)c2n1	2.5 µM (≈ 0.949 µg/mL)
Cc1ccc2nc(C)c(-c3ccn(Cc4ccccc4)n3)n2c1	5.9 µM (≈ 1.78 µg/mL)
Cc1cccc(CC(=N)NCCOc2cccc(Cl)c2)c1	5.5 µM (≈ 1.67 µg/mL)
CN1CCC(COC(=O)c2cn(C)c3ccc(Cl)cc23)CC1	8.7 µM (≈ 2.79 µg/mL)
Cc1ccc(S(=O)(=O)N2CCC(n3nnc4cc(C(F)(F)F)ccc43)CC2)cc1Cl	9.3 µM (≈ 4.27 µg/mL)
CCCn1nc(C(=O)N2CCN(c3ccccc3F)CC2)c2ccccc2c1=O	8.7 µM (≈ 3.43 µg/mL)
Br.CC1(C)N=C(N)N=C(N)N1OCCc1ccc2ccccc2c1	8.8 µM
CC1CN(Cc2cccc(C(=O)NCc3ccc(F)c(-c4cccc(CN5CCN[C@@H](C)C5)c4)c3)c2)C(C)CN1 (some centres not stated)	8.9 µM (≈ 4.84 µg/mL)
Clc1cc(N2CCNCC2)cc(Cl)c1OCc1ccccc1	2.2 µM (≈ 0.742 µg/mL)
CC(=O)NCCn1c(Sc2ccnc(N3CCN(c4ccncc4)CC3)n2)nnc1-c1ccccc1	4 µM (≈ 2.01 µg/mL)
Cc1ccc2nc(C)c(C(=O)NCC(C)C)n2c1	4.8 µM (≈ 1.18 µg/mL)
CCOc1ccc(C=C(C(=O)NCc2ccc(F)cc2)c2nc3ccccc3[nH]2)cc1	6.1 µM (≈ 2.53 µg/mL)
CC(=O)c1cccc(NC(=O)N(CCc2cccnc2)Cc2csc(-c3ccc(CNCc4ccccc4)cc3)n2)c1	2.6 µM (≈ 1.5 µg/mL)
Cc1ccc(-c2nnc(C)c(N3CCCC3)n2)cc1	10 µM (≈ 2.54 µg/mL)

Structure (SMILES)	MIC90
O=C(Nc1nc2c(F)cc(F)cc2s1)C1CCCN1S(=O)(=O)c1cccs1 (configuration not stated)	6.3 µM (≈ 2.71 µg/mL)
O=C(NNC(=O)c1cccs1)c1ccc(Oc2ccccc2)cc1	4.4 µM (≈ 1.49 µg/mL)
O=C(Nc1ccc(OC(F)(F)F)cc1)NC1CCCCC1	4.8 µM (≈ 1.45 µg/mL)
Cc1c(C(=O)[C@@H]2C[C@H]2CN(Cc2ccccn2)Cc2ccccn2)sc2ccccc12	7.1 µM (≈ 3.04 µg/mL)
COc1ccc(CCNC(=O)c2nc(-c3ccc(OC)c(OC)c3)no2)cc1OC	1.5 µM (≈ 0.62 µg/mL)
Cc1ccc(-n2nc(C)c3c(N4CCCNCC4)nc(C4CC4)nc32)cc1	0.8 µM (≈ 0.29 µg/mL)
Cc1ccc2nc(C(F)(F)F)c(C(=O)NCc3cccs3)n2c1	1.2 µM (≈ 0.407 µg/mL)
O=C(NNC(=O)c1cccs1)c1csc(COc2ccccc2Cl)n1	5.3 µM (≈ 2.09 µg/mL)
O=C(NC1CCN(Cc2ccccc2)C1)c1cccc(-c2ccc(Cl)cc2)c1 (configuration not stated)	10 µM (≈ 3.91 µg/mL)
O=c1cc(N2CCCNCC2)c(Cl)nn1CCCNS(=O)(=O)c1cccc(-c2ccccc2)c1	4.3 µM (≈ 2.16 µg/mL)
FC(F)(F)c1cc(N2CCCNCC2)c2ccccc2n1	4.7 µM (≈ 1.39 µg/mL)
c1cc(CN2CCC3(CC2)OCCc2sccc23)nc(-c2ccc3c(c2)OCO3)c1	2.3 µM (≈ 0.967 µg/mL)
Cc1cc(C)c2cc(CN(Cc3cccnc3)C(=O)c3ccccc3)c(Cl)nc2c1	8.8 µM (≈ 3.66 µg/mL)
Fc1ccc(-c2cccc3ccc(N4CCNCC4)nc23)cc1	8.5 µM (≈ 2.61 µg/mL)
O=C(COCC(=O)Nc1nc(-c2ccccn2)cs1)Nc1nc(-c2ccccn2)cs1	4 µM (≈ 1.81 µg/mL)
CCOc1cc(OCC)c(C(=O)C(C)C)cc1C(=O)Nc1cccc2c1CCN(C)C2	9.6 µM (≈ 4.08 µg/mL)
COc1ccc(-c2cc3nccc(C4CCCNC4)n3n2)cc1 (configuration not stated)	6.5 µM (≈ 2 µg/mL)
CC(=O)Nc1ccc(S(=O)(=O)Nc2ccccc2Nc2ccc(C)cc2)cc1	1.9 µM (≈ 0.751 µg/mL)
FC(F)(F)c1ccc2c(N3CCCNCC3)ncc(-c3ccccc3)c2n1	4.8 µM (≈ 1.79 µg/mL)
NC(=O)c1cccc(-c2ccc(OCCCN3CC[C@@H](OCc4ccccc4)C3)cc2)c1	7.5 µM (≈ 3.23 µg/mL)
C=CCNc1nc(SC)nc2ccccc12	4.4 µM (≈ 1.02 µg/mL)
COc1ccc(-c2ccc(Nc3cccc(S(=O)(=O)CCN4CCc5ccccc5C4)c3)nc2)cn1	3.6 µM (≈ 1.8 µg/mL)
CN(Cc1nc2ccccc2s1)C(=O)c1cccc(NC(=O)c2cccs2)c1	1.4 µM (≈ 0.571 µg/mL)

Structure (SMILES)	MIC90
CSc1ccc(-c2nnc(NC(=O)c3cccc(F)c3)o2)cc1	3.9 µM (≈ 1.28 µg/mL)
O=C(COc1ccc(-c2ccccc2)cc1)NNC(=O)c1ccncc1	5.7 µM (≈ 1.98 µg/mL)
COc1ccc2nc(C)cc(OCC(=O)Nc3cc(C)cc(C)c3)c2c1	0.5 µM (≈ 0.175 µg/mL)
Fc1cccc(Sc2nccc(N3CCNCC3)n2)c1	6 µM (≈ 1.74 µg/mL)
CNc1nc(SC)nc2ccsc12	10 µM (≈ 2.11 µg/mL)
C[C@H]1CN(Cc2cccc(-c3cc(CNC(=O)c4ccc(CC5CCNCC5)cc4)ccc3F)c2)CCN1	4.7 µM (≈ 2.42 µg/mL)
CN(C)CCNCc1ccc(-c2cc(Cl)cc(Cl)c2)o1	2.7 µM (≈ 0.846 µg/mL)
O=C(CCSc1ccc(Cl)cc1)Nc1nc(-c2ccccn2)cs1	3.9 µM (≈ 1.47 µg/mL)
COc1cccc(-c2nc3c(N4CCCC4)cccc3n2CC2CCCN2)n1.O=C(O)C(F)(F)F (configuration not stated)	5.8 µM
O=C(CC1NC(=O)c2ccccc21)Nc1cccc(-c2cc(-c3c(Cl)cccc3Cl)no2)c1 (configuration not stated)	5 µM (≈ 2.39 µg/mL)
CC(c1nc2ccccc2s1)N(C)C(=O)c1ccc2c(c1)CC(c1ccccc1)OC2=O (configuration not stated)	1.6 µM (≈ 0.708 µg/mL)
Cc1ccc(OCC(=O)Nc2ccc(C(=O)c3c(C)nc4sccn34)cc2)c(C)c1	3.9 µM (≈ 1.64 µg/mL)
COc1ccc(OC)c(S(=O)(=O)Nc2ccc(Nc3ccccc3)cc2OC)c1	8.8 µM (≈ 3.65 µg/mL)
Br.CCc1ccccc1OCCCON1C(=N)N=C(N)NC1(C)C	2.8 µM
Cc1c(C(=O)Nc2ccccc2)nnc2cc(-c3ccccc3)nn12	3.1 µM (≈ 1.02 µg/mL)
Nc1ccccc1NC1CCN(Cc2ccccc2)CC1	3.6 µM (≈ 1.01 µg/mL)
NC(=O)c1nnc(Sc2ccnc(N3CCN(c4ccncc4)CC3)n2)n1-c1ccccc1	6.3 µM (≈ 2.9 µg/mL)
COc1ccccc1OCCCCn1c(C2CC2)nc2ccccc21	3 µM (≈ 1.01 µg/mL)
CCOC(=O)CC[C@H](NC(=O)c1ccc(S(=O)(=O)Nc2ccc3nc(N)[nH]c(=O)c3c2)cc1)C(=O)OCC	2.4 µM (≈ 1.31 µg/mL)
COc1cccc(C(=O)Nc2nc(-c3ccccn3)cs2)c1	7.6 µM (≈ 2.37 µg/mL)
C[C@@H]1CN(c2ccc(C#N)c(C(F)(F)F)c2)CCN1	4.2 µM (≈ 1.13 µg/mL)
O=C(Nc1cccc(C(=O)N2CCCC(c3nc4ccccc4s3)C2)c1)c1cccs1 (configuration not stated)	3.6 µM (≈ 1.61 µg/mL)
CCc1cc(=O)[nH]c(-n2nc(C)cc2NC(=O)c2ccc(C(C)(C)C)cc2)n1	0.8 µM (≈ 0.304 µg/mL)

Structure (SMILES)	MIC90
O=C(Nc1ccc(N2CCNCC2)cc1)c1ccn2ncc(-c3cccc(Cl)c3)c2n1	8.5 µM (≈ 3.68 µg/mL)
COc1cc(CN2CCC3(C=Cc4ccccc43)CC2)cc2c1OCO2	3.1 µM (≈ 1.08 µg/mL)
O=c1oc(-c2ccccc2F)nc2scc(-c3ccccc3)c12	4 µM (≈ 1.29 µg/mL)
O=C(Nc1nc(-c2ccccn2)cs1)c1ccc(Oc2ccccc2)cc1	7 µM (≈ 2.61 µg/mL)
Cc1nn(-c2nc(-c3ccccn3)nc3ccsc23)c(N)c1C#N	7 µM (≈ 2.33 µg/mL)
Cc1c(Cl)ccc2sc(N(CCN(C)C)C(=O)c3ccc(S(C)(=O)=O)cc3)nc12	7 µM (≈ 3.16 µg/mL)
Cc1noc(C)c1COc1ccc(C(=O)N2CCCCC2c2nc3ccccc3s2)cc1 (configuration not stated)	6.4 µM (≈ 2.86 µg/mL)
Cc1cc(N2CCCN(C)CC2)nc(Nc2cc(F)cc(F)c2)n1	3.4 µM (≈ 1.13 µg/mL)
CCCNc1cc(-c2ccccc2)nc(-n2nc(C)cc2C)n1	5 µM (≈ 1.54 µg/mL)
Cc1cccc(-c2nc(C(=O)Nc3ccnc4ncnn34)cs2)c1	5.3 µM (≈ 1.78 µg/mL)
Cc1ccc(NC(=O)C2COc3ccccc3C2)cc1Cl (configuration not stated)	8.5 µM (≈ 2.57 µg/mL)
CCOc1ccc(C(=O)Nc2ccc3c(c2)C(C)N(C)CC3)cc1Br (configuration not stated)	4 µM (≈ 1.61 µg/mL)
O=C(Nc1cccc(C(=O)N2CCCC2c2nc3ccccc3s2)c1)c1cccs1 (configuration not stated)	6.9 µM (≈ 2.99 µg/mL)
CCc1c(C)sc2nc(C)nc(SCC(=O)NCc3ccccc3)c12	7.2 µM (≈ 2.68 µg/mL)
CC(=O)N1CCc2ccc(/C=C/C(=O)O)cc21	2.1 µM (≈ 0.486 µg/mL)
Cc1ccc(C(=O)N2N=C(C(F)(F)F)CC2(O)c2ccncc2)cc1 (configuration not stated)	4.4 µM (≈ 1.54 µg/mL)
O=C(O)C(F)(F)F.c1ccc(C[C@H]2CN(c3nccc(Oc4ccc(-n5ccnc5)cc4)n3)CCN2)cc1	8.2 µM
Cc1ccc2nc(C(F)(F)F)c(C(=O)NCc3ccc4c(c3)OCO4)n2c1	1.8 µM (≈ 0.679 µg/mL)
Nc1ccccc1Nc1ccc2c(c1)OCO2	1.7 µM (≈ 0.388 µg/mL)
Cc1cc(N)nc2cc(-c3ccc(CCN)cc3)ccc12	9.5 µM (≈ 2.64 µg/mL)
